Reference: patent US10264794B2, “Compositions comprising unsaturated fatty esters and uses thereof” (priority 2013, dated 2019)

Tested on: ASTM test fungi
Assay: Agar plate testing
Format: cell-based
Settings: agar plates, 14 days at 30 C
Source text: ASTM test fungi in Petri dishes were subjected to Treatment solutions with and without unsaturated fatty esters (linoleic, oleic, linolenic and arachidonic esters as a 1:1:1:1 ratio). The agar plate test method allowed for rapid determinations of antifungal efficacy against wood-degrading strains of concern. The certified cultures were obtained from the American Type Culture Collection (ATCC) and propagated as per the product information sheets: • Irpex lacteus: ATCC number 11245, yeast medium Difco 0712 (ATCC medium no. 200) • Neolentius lepideus: ATCC number 12653, YM agar Difco 0712 (ATCC medium no. 200) • Postia poria: ATCC number 11538, YM agar Difco 0712 (ATCC medium no. 200) • Pleurotus ostreatus: ATCC number 32237, YM agar Difco 0712 (ATCC medium no. 200) • Trametes versicolor: ATCC number 42462, Hagem's-Modess medium (ATCC medium no. 479) • Gleoephyllum trabeum: ATCC number 11539, Potato Dextrose Agar with 0.5% yeast extract (ATCC medium no. 337)
Each plate was then inoculated in a flame induced sterile environment with a 5 mm diameter agar plug fungal colony of those fungi listed. […] The plates were incubated for 14 days at 30 C and the presence or absence of fungal growth was noted and measured.

Structure (SMILES): Oc1c(Cl)c(Cl)c(Cl)c(Cl)c1Cl [PCP, pentachlorophenol]
- growth of fungi: completely inhibited
